The text below walks through data of patent US5770617A, “Terbenzimidazoles useful as antifungal agents” (Rutgers, The State University of New Jersey, priority 1997, dated 1998).

For series [1], the system named is human lymphoblast RPMI 8402. The series is described as follows: MTT cytotoxicity assay, RPMI 8402. Format: cell-based. The procedure: The cytotoxicity was determined using the as MTT-microtiter plate tetrazolinium cytotoxicity assay (MTA) following the procedures of F. Denizot et al., J. Immunol. Methods, 89, 271 (1986); J. Carmichael et al., Cancer Res, 47, 936 (1987) and T. J. Mosmann et al., Immunol. Methods, 65, 55 (1983). The human lymphoblast RPMI 8402 and its camptothecin-resistant variant cell line, CPT-K5 were provided by Dr. Toshiwo Andoh (Aichi Cancer Center Research Institute, Nagoya, Japan). See, for example, T. Andoh et al., Adv. Pharmacol., 29B, 93 (1994). The cytotoxicity assay was performed using 96-well microtiter plates. Cells were grown in suspension at 37 ° C. in 5% CO2 and maintained by regular passage in RPMI medium supplemented with 10% heat inactivated fetal bovine serum, L-glutamine (2 mM), penicillin (100 U/ml), and streptomycin (0.1 mg/ml). For determination of IC50, cells were exposed continuously with varying concentrations of drug concentrations and MTT assays were performed at the end of the fourth day.

Series [2] addresses T1, calf thymus topoisomerase I (Bos taurus, UniProt F1MN93).
T1 construct: DNA topoisomerase I was purified from calf thymus gland as reported previously; from tissue; host or cells: calf thymus gland
T1 sequence (F1MN93 1-767): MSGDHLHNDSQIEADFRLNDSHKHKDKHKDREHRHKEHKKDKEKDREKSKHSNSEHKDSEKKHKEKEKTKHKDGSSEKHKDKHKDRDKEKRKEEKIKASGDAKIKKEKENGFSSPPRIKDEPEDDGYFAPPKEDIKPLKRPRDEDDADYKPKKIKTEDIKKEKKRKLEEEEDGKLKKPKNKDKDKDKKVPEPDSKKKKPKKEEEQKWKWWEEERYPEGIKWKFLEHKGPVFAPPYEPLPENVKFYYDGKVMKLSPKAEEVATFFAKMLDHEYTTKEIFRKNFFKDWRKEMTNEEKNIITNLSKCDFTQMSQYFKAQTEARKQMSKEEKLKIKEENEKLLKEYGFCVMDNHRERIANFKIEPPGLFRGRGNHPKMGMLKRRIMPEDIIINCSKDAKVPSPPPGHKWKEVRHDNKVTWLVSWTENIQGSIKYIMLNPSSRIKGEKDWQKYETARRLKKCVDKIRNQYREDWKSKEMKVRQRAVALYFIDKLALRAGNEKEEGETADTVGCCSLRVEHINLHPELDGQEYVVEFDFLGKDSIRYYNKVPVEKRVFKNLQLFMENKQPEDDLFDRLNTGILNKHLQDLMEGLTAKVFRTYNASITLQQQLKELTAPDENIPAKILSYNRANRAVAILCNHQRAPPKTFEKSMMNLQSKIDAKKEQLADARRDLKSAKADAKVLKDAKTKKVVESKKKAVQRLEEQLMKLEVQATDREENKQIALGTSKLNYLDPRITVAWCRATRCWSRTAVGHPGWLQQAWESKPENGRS
The series is described as follows: Topoisomerase I-mediated DNA cleavage assay (calf thymus enzyme). The series is classed as biochemical. The settings on record: for Topo I-mediated DNA cleavage (REC, Relative Effective Concentration): concentration relative to Hoechst 33342 (arbitrarily 1) producing the same cleavage on plasmid DNA, calf thymus topoisomerase I. From the text:
A. Topoisomerase I-Mediated DNA Cleavage Assays
DNA topoisomerase I was purified from calf thymus gland as reported previously by B. D. Halligan et al., J. Biol. Chem., 260, 2475 (1985).
Plasmid YEpG was also purified by the alkali lysis method followed by phenol deproteination and CsCl/ethidium isopycnic centrifugation as described by T. Maniatis et al., Molecular Cloning, A Laboratory Manual, Cold Spring Harbor Labs, N.Y. (1982) at pages 149-185. The end-labeling of the plasmid was accomplished as previously described by L. F. Liu et al., J. Biol. Chem., 258, 15365 (1983). The cleavage assays were performed as previously reported by A. Y. Chen et al., Cancer Res., 53, 1332 (1993). Human topoisomerase I was isolated as a recombinant fusion protein using a T7 expression system.

Series [3] has as its target T2, Aspergillus topoisomerase I (Aspergillus nidulans, UniProt Q5BGS7).
T2 construct: about 105 kDa by phosphate transfer
T2 sequence (Q5BGS7 1-871): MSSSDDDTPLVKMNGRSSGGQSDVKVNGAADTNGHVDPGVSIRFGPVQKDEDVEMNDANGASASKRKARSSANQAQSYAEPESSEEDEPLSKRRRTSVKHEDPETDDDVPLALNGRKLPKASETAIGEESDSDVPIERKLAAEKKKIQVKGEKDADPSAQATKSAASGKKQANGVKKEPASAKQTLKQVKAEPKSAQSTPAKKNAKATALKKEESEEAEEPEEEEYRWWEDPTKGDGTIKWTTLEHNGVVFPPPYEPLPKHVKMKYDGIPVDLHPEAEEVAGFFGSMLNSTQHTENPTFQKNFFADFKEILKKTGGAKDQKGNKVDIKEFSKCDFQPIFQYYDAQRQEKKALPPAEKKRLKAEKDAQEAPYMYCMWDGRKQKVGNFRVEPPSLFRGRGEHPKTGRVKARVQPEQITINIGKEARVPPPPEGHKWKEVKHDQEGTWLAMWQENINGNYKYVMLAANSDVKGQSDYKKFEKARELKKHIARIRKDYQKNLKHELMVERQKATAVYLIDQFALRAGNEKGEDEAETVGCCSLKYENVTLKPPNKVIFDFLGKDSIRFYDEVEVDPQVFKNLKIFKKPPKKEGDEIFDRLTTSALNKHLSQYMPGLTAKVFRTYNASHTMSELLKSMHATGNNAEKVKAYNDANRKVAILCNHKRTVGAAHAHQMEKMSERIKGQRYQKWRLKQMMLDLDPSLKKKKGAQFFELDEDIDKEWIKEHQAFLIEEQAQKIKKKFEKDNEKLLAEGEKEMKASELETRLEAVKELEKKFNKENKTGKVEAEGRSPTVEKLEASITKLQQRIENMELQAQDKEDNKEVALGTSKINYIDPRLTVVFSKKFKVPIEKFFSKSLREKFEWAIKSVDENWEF
The series is described as follows: Topoisomerase I cleavage assay, Aspergillus enzyme. The series is classed as biochemical. The conditions noted are these: DNA cleavage assay. As for the experimental part: Two liters of YG medium (0.5% yeast extract and 2% glucose) were inoculated with approximately 5×10^8 conidia/ml. After 16 hours of growth at 37° C., the mycelia were collected, washed with Buffer I (50 mM Tris-HCl, pH 7.7, 1 mM EDTA, 1 mM EGTA, 10% glycerol, 1 mM phenylmethylsulfonyl fluoride and 1 mM 2-mercaptoethanol), and quickly chilled in liquid nitrogen. The frozen mycelia (approximately 20 grams) were ground to powder and resuspended in 300 ml of Buffer I. The lysate was centrifuged at 10K rpm in a Sorval HB3 Rotor for 15 minutes to remove cell debris. The supernatant was made 6% in polyethylene glycol (v/v) and 1M NaCl. After one hour on ice with gentle stirring, the solution was centrifuged at 14K rpm in a Sorvall Rotor for 30 minutes to remove nucleic acids.
Subsequent steps in purification were the same as described previously for purification of recombinant human DNA topoisomerase I (B. Gatto et al., Cancer Res., 56, 2795 (1996)). Briefly, the supernatant was chromatographed directly onto a hydroxyapatite Bio-gel HTP (BioRad Laboratories, Richmond, Calif.) column. Fractions containing relaxation activity were pooled, diluted and then loaded onto a BioRex70 column (BioRad Laboratories, Richmond, Calif.). The column was developed with a linear gradient from 0.2 to 1M KCl. The peak fractions were pooled and dialyzed overnight at 4° C. against 30 mM potassium phosphate, 50% glycerol (v/v), 0.5 mM EDTA, and 1 mM DTT. Recombinant human topoisomerase I was purified from Escherichia coli BL21 (DE3) harboring PET1B as described previously (Gatto et al., Cancer Res., 56, 2795 (1996)).
DNA topoisomerase I cleavage assays were performed as described by Y.-H. Hsiang et al., J. Biol. Chem., 260, 14873 (1985). YEpG DNA was linearized with BamHI and then 3 '-end-labeled with Klenow polymerase and α[-^32 P]dCTP. Following phenol extraction and ethanol precipitation, the labeled DNA was resuspended in 10 mM Tris, pH 8.0, and 1 mM EDTA. The DNA cleavage assay was done in a reaction mixture (20 μl) containing 40 mM Tris-HCl, pH 7.8, 100 mM KCl, 10 mM MgCl2, 0.5 mM dithiothreitol, 0.5 mM EDTA, 30 μg/ml bovine serum albumin, 20 ng of labeled YEpG DNA, and […] of Aspergillus or human topoisomerase I diluted to various extents. Following incubation at 23° C. for 15 minutes, the reactions were terminated by the addition of SDS (final concentration 1%) and proteinase K (final concentration 200 μg/ml). Proteinase K treatment continued at 37° C. for another 1 hour. The terminated reactions were either alkali-denatured and then loaded (alkaline loading) or loaded directedly in neutral loading buffer (neutral loading) onto a 1% agarose gel in neutral TPE electrophoresis solution. Gel drying and autoradiography were performed as described by Hsiang et al., cited above.

For a further series, the target named is T3, human topoisomerase I (Homo sapiens, UniProt P11387).
T3 construct: made in house; host or cells: Escherichia coli BL21 (DE3) harboring PET1B
T3 sequence (P11387 1-765): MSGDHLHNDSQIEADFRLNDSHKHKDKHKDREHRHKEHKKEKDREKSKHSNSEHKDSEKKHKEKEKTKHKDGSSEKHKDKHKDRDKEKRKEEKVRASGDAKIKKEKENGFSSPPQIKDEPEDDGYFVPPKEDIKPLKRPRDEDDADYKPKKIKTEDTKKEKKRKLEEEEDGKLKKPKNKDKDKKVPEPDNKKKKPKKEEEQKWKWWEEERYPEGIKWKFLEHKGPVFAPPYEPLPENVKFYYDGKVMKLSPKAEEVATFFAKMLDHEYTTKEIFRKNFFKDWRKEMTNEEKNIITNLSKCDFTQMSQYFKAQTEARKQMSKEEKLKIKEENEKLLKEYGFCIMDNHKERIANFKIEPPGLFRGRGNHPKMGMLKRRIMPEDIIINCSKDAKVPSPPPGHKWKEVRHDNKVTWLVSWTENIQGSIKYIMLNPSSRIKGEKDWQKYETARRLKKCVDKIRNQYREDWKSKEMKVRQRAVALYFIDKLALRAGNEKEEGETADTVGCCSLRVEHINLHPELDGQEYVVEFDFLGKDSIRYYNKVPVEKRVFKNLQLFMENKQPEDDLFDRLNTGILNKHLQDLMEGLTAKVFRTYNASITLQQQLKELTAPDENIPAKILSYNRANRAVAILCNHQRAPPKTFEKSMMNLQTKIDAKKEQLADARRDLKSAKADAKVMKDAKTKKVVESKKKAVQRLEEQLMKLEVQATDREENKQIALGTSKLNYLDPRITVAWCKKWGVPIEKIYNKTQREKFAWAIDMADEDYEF
The conditions noted are these: cited from earlier work.

Series [4] has as its system yeast cells expressing yeast topoisomerase I. The series is described as follows: Yeast cytotoxicity assay, yeast topoisomerase I. The series is classed as cell-based, S. cerevisiae. The text has this: (§1) The topoisomerase I-specific in vivo cytotoxicity assay was adapted from A. M. Knab et al., J. Biol. Chem., 268, 22322 (1993). In this system, various topoisomerase I genes or cDNAs cloned into the single-copy yeast plasmid vector (YCpGAL1; Knab et al., cited above) are expressed under the control of the GAL1 promoter in the JN2-134 strain of S. cerevisiae (MAT, rad52::Leu2, trp1, ade2-1, his7, ura3-52, ise1, top1-1, and leu2; M. A. Bjornsti et al., Cancer Res., 49, 6318 (1989)). The topoisomerase I gene or cDNA constructs in the vector are, respectively, the wild-type yeast topoisomerase I gene (YCpGAL-ScTOP1; need cite (1989)), a nonfunctional topoisomerase I gene where the active site tyrosine-727 is mutated to phenylalanine (YCPGAL1-Sctop1Y727; A. M. Knab et al., J. Biol. Chem., 268, 22322 (1993)), and the wild-type human topoisomerase I cDNA (YCp-GAL-hTOP1; M. A. Bjornsti et al., Cancer Res., 49, 6318 (1989)).
(§2) To qualitatively test the cytotoxicity and the topoisomerase I specificity of the drugs, yeast cells containing the specified plasmid were grown in dropout medium supplemented with uracil, 2% galactose, and the drug being tested.

Series [5] relates to yeast cells expressing human topoisomerase I. The series is described as follows: Yeast cytotoxicity assay, human topoisomerase I. The series is classed as cell-based, S. cerevisiae.
From the text: as §1, §2

Series [6] concerns yeast cells expressing nonfunctional yeast topoisomerase I. The series is described as follows: Yeast cytotoxicity assay, nonfunctional yeast topoisomerase I. The series is classed as cell-based, S. cerevisiae.
From the text: as §1, §2

For series [7], the target named is T4, mammalian DNA topoisomerase I (Homo sapiens, UniProt P11387).
T4 sequence (P11387 1-765): T3 sequence (P11387 1-765)
The conditions noted are these: cited from earlier work.

Structures are written as SMILES. Entries after “also recorded” stand apart in the source; their conditions may differ.

`CCCc1ccc2[nH]c(-c3ccc4[nH]c(-c5ccc6[nH]cnc6c5)nc4c3)nc2c1` [Compound 12, 5-Propyl-2-[2'-(benzimidazol-5"-yl)benzimidazol-5'-yl]benzimidazole]: in series [1], the “cytotoxicity towards RPMI 8402, in words” value is given as “weak cytotoxicity”. Also, in series [2], the “potency as topoisomerase I inhibitor compared with Hoechst 33342, in words” value is recorded as “much less active” and the “Topo I-mediated DNA cleavage (REC, Relative Effective Concentration)” value was determined as 100.

For the molecule `COc1cc2c[n+](C)c3c4cc5c(cc4ccc3c2cc1OC)OCO5` [nitidine], in series [3], the “inhibition (poisoning) of Aspergillus topoisomerase I, in words” value was “completely resistant; also recorded: did not inhibit Aspergillus topoisomerase I to any significant extent”. Also, the “inhibition of human topoisomerase I, in words (known / previously disclosed)” value on human topoisomerase I was “highly potent inhibitors”. In series [4], the “cytotoxicity to yeast cells expressing functional yeast topoisomerase I” value is reported as “not cytotoxic”. The “cytotoxicity to yeast cells expressing human topoisomerase I” value in series [5] was “highly cytotoxic”. Moreover, the “cytotoxicity to yeast cells expressing nonfunctional yeast topoisomerase I” value in series [6] was “not cytotoxic”.

Consider `O=[N+]([O-])c1ccc2nc(-c3ccc(O)cc3)[nH]c2c1` [QS/II/51], for which, in series [3], the “inhibition (poisoning) of Aspergillus topoisomerase I, in words” value is on record as “None of the mono-benzimidazoles, including QS/II/50, QS/II/51, QS/II/59A, an QS/II/9, exhibited any inhibitory effect”. Moreover, the “inhibition (poisoning) of mammalian DNA topoisomerase I, previous studies” value in series [7] is “inhibitors (poisons)”.

With `Brc1ccc2[nH]c(-c3ccc4[nH]c(-c5ccc6[nH]cnc6c5)nc4c3)nc2c1` [JSKIV-37, 5-Bromo-2-[2'-(benzimidazol-5"-yl)benzimidazol-5'-yl]-benzimidazole], the IC50 in series [1] (Homo sapiens, RPMI 8402, 96 h, read-out: Cytotoxicity IC50 RPMI) is 1.4 µM. Also, the “Topo I-mediated DNA cleavage (REC, Relative Effective Concentration)” value in series [2] worked out at 1.
